Values after ≈ are worked out from the molar mass of the structure shown.
Experiment: Solubility of S-2367 in water (Japanese Pharmacopoeia, Dissolution Test, Second Solution)
Assay type: physicochemical
Conditions: 37 °C, pH 6.8, aqueous buffer
From the text: A particularly preferable compound is trans-N-(5-trifluoromethylpyridin-2-yl)-4-(tertiarybutylsulfonylamino)cyclohexanecarboxamide (S-2367). The compound is a crystal under a room temperature.
The NPYY5 receptor antagonist of the present invention is not particularly limited as far as it is a drug which can be orally administered, but is preferably a drug having low solubility in water, so-called poorly water-soluble drug.

## CC(C)(C)S(=O)(=O)N[C@H]1CC[C@H](C(=O)Nc2ccc(C(F)(F)F)cn2)CC1 [Example S-2367, trans-N-(5-trifluoromethylpyridin-2-yl)-4-(tertiarybutylsulfonylamino)cyclohexanecarboxamide]
  solubility: ~3.5 µg/mL (≈ 8.59 µM)

Source: patent publication US20100240711A1, “SOLID PREPARATION COMPRISING NPYY5 RECEPTOR ANTAGONIST” (SHIONOGI & CO., LTD., priority 2007, published 2010)
